# In the NIST ThermoML archive (doi:10.1021/acs.jced.8b00201):
# Numbers after ± are expanded uncertainties.
# How the values were obtained:
# [1] = 100 kPa, Liquid; for viscosity: Concentric cylinders viscometry; for mass density: Vibrating tube method
# [2] = xn = mol fraction of the nth substance listed; conditions: 100 kPa, Liquid; for viscosity: Concentric cylinders viscometry; for mass density: Vibrating tube method
SMILES,viscosity ([1]; 293.15 K),mass density ([1]; 293.15 K),viscosity ([1]; 298.15 K),mass density ([1]; 298.15 K),viscosity ([1]; 303.15 K),mass density ([1]; 303.15 K),viscosity ([1]; 308.15 K),mass density ([1]; 308.15 K),viscosity ([1]; 313.15 K),mass density ([1]; 313.15 K),viscosity ([1]; 318.15 K),mass density ([1]; 318.15 K),viscosity ([1]; 323.15 K),mass density ([1]; 323.15 K),"viscosity ([2]; 293.15 K, x2 = 0)","mass density ([2]; 293.15 K, x2 = 0)","viscosity ([2]; 298.15 K, x2 = 0)","mass density ([2]; 298.15 K, x2 = 0)","viscosity ([2]; 303.15 K, x2 = 0)","mass density ([2]; 303.15 K, x2 = 0)",other results
CCCCCCCCO [octan-1-ol],9.13 ± 0.46 mPa·s,824.9 ± 20 kg/m3,7.62 ± 0.38 mPa·s,821.4 ± 20 kg/m3,6.41 ± 0.32 mPa·s,817.9 ± 20 kg/m3,5.43 ± 0.27 mPa·s,814.4 ± 20 kg/m3,4.63 ± 0.23 mPa·s,810.9 ± 20 kg/m3,3.98 ± 0.2 mPa·s,807.3 ± 20 kg/m3,3.4 ± 0.17 mPa·s,803.7 ± 20 kg/m3,–,–,–,–,–,–,–
CCCCCCCCCCO [decan-1-ol],14.42 ± 0.72 mPa·s,829.5 ± 20 kg/m3,11.8 ± 0.59 mPa·s,826.1 ± 20 kg/m3,9.76 ± 0.49 mPa·s,822.7 ± 20 kg/m3,8.14 ± 0.41 mPa·s,819.3 ± 20 kg/m3,6.84 ± 0.34 mPa·s,815.8 ± 20 kg/m3,5.8 ± 0.29 mPa·s,812.4 ± 20 kg/m3,4.96 ± 0.25 mPa·s,808.9 ± 20 kg/m3,–,–,–,–,–,–,–
O=C1CCCCC1 [cyclohexanone] + CCCCCCCCCO,–,–,–,–,–,–,–,–,–,–,–,–,–,–,–,–,–,–,–,–,"viscosity ([2]; 293.15 K, x1 = 1): 2.3 ± 0.12 mPa·s; mass density ([2]; 293.15 K, x1 = 1): 948.8 ± 20 kg/m3; viscosity ([2]; 298.15 K, x1 = 1): 2.09 ± 0.11 mPa·s; mass density ([2]; 298.15 K, x1 = 1): 943.1 ± 20 kg/m3; viscosity ([2]; 303.15 K, x1 = 1): 1.91 ± 0.1 mPa·s; mass density ([2]; 303.15 K, x1 = 1): 938.2 ± 20 kg/m3; viscosity ([2]; 308.15 K, x1 = 1): 1.75 ± 0.09 mPa·s; mass density ([2]; 308.15 K, x1 = 1): 933.5 ± 20 kg/m3; viscosity ([2]; 313.15 K, x1 = 1): 1.6 ± 0.08 mPa·s; mass density ([2]; 313.15 K, x1 = 1): 928.8 ± 20 kg/m3; viscosity ([2]; 318.15 K, x1 = 1): 1.46 ± 0.07 mPa·s; mass density ([2]; 318.15 K, x1 = 1): 924.4 ± 20 kg/m3; viscosity ([2]; 323.15 K, x1 = 1): 1.34 ± 0.07 mPa·s; mass density ([2]; 323.15 K, x1 = 1): 920.7 ± 20 kg/m3"
CCCCCCO [hexan-1-ol] + O=C1CCCCC1,–,–,–,–,–,–,–,–,–,–,–,–,–,–,5.37 ± 0.27 mPa·s,818.7 ± 20 kg/m3,4.58 ± 0.23 mPa·s,815.1 ± 20 kg/m3,3.94 ± 0.2 mPa·s,811.5 ± 20 kg/m3,"viscosity ([2]; 308.15 K, x2 = 0): 3.4 ± 0.17 mPa·s; mass density ([2]; 308.15 K, x2 = 0): 807.9 ± 20 kg/m3; viscosity ([2]; 313.15 K, x2 = 0): 2.95 ± 0.15 mPa·s; mass density ([2]; 313.15 K, x2 = 0): 804.2 ± 20 kg/m3; viscosity ([2]; 318.15 K, x2 = 0): 2.58 ± 0.13 mPa·s; mass density ([2]; 318.15 K, x2 = 0): 800.6 ± 20 kg/m3; viscosity ([2]; 323.15 K, x2 = 0): 2.26 ± 0.11 mPa·s; mass density ([2]; 323.15 K, x2 = 0): 796.8 ± 20 kg/m3"
CCCCCO [pentan-1-ol] + O=C1CCCCC1,–,–,–,–,–,–,–,–,–,–,–,–,–,–,4.03 ± 0.2 mPa·s,814.5 ± 20 kg/m3,3.49 ± 0.18 mPa·s,810.8 ± 20 kg/m3,3.04 ± 0.15 mPa·s,807.1 ± 20 kg/m3,"viscosity ([2]; 308.15 K, x2 = 0): 2.65 ± 0.13 mPa·s; mass density ([2]; 308.15 K, x2 = 0): 803.3 ± 20 kg/m3; viscosity ([2]; 313.15 K, x2 = 0): 2.32 ± 0.12 mPa·s; mass density ([2]; 313.15 K, x2 = 0): 799.6 ± 20 kg/m3; viscosity ([2]; 318.15 K, x2 = 0): 2.05 ± 0.1 mPa·s; mass density ([2]; 318.15 K, x2 = 0): 795.8 ± 20 kg/m3; viscosity ([2]; 323.15 K, x2 = 0): 1.81 ± 0.09 mPa·s; mass density ([2]; 323.15 K, x2 = 0): 792 ± 20 kg/m3"
CCCCCCCCCCO [decan-1-ol] + O=C1CCCCC1,–,–,–,–,–,–,–,–,–,–,–,–,–,–,14.42 ± 0.72 mPa·s,829.5 ± 20 kg/m3,11.8 ± 0.59 mPa·s,826.1 ± 20 kg/m3,9.76 ± 0.49 mPa·s,822.7 ± 20 kg/m3,"viscosity ([2]; 308.15 K, x2 = 0): 8.14 ± 0.41 mPa·s; mass density ([2]; 308.15 K, x2 = 0): 819.3 ± 20 kg/m3; viscosity ([2]; 313.15 K, x2 = 0): 6.84 ± 0.34 mPa·s; mass density ([2]; 313.15 K, x2 = 0): 815.8 ± 20 kg/m3; viscosity ([2]; 318.15 K, x2 = 0): 5.8 ± 0.29 mPa·s; mass density ([2]; 318.15 K, x2 = 0): 812.4 ± 20 kg/m3; viscosity ([2]; 323.15 K, x2 = 0): 4.96 ± 0.25 mPa·s; mass density ([2]; 323.15 K, x2 = 0): 808.9 ± 20 kg/m3"
O=C1CCCCC1 [cyclohexanone] + CCCCCCCO,–,–,–,–,–,–,–,–,–,–,–,–,–,–,–,–,–,–,–,–,"viscosity ([2]; 293.15 K, x1 = 1): 2.3 ± 0.12 mPa·s; mass density ([2]; 293.15 K, x1 = 1): 948.8 ± 20 kg/m3; viscosity ([2]; 298.15 K, x1 = 1): 2.09 ± 0.11 mPa·s; mass density ([2]; 298.15 K, x1 = 1): 943.1 ± 20 kg/m3; viscosity ([2]; 303.15 K, x1 = 1): 1.91 ± 0.1 mPa·s; mass density ([2]; 303.15 K, x1 = 1): 938.2 ± 20 kg/m3; viscosity ([2]; 308.15 K, x1 = 1): 1.75 ± 0.09 mPa·s; mass density ([2]; 308.15 K, x1 = 1): 933.5 ± 20 kg/m3; viscosity ([2]; 313.15 K, x1 = 1): 1.6 ± 0.08 mPa·s; mass density ([2]; 313.15 K, x1 = 1): 928.8 ± 20 kg/m3; viscosity ([2]; 318.15 K, x1 = 1): 1.46 ± 0.07 mPa·s; mass density ([2]; 318.15 K, x1 = 1): 924.4 ± 20 kg/m3; viscosity ([2]; 323.15 K, x1 = 1): 1.34 ± 0.07 mPa·s; mass density ([2]; 323.15 K, x1 = 1): 920.7 ± 20 kg/m3"
CCCCCCCCCO [nonan-1-ol],11.41 ± 0.57 mPa·s,827.5 ± 20 kg/m3,9.43 ± 0.47 mPa·s,824 ± 20 kg/m3,7.86 ± 0.39 mPa·s,820.5 ± 20 kg/m3,6.61 ± 0.33 mPa·s,817.1 ± 20 kg/m3,5.6 ± 0.28 mPa·s,813.6 ± 20 kg/m3,4.78 ± 0.24 mPa·s,810.1 ± 20 kg/m3,4.1 ± 0.21 mPa·s,806.5 ± 20 kg/m3,–,–,–,–,–,–,–

# Second part, led by results:
viscosity ([1]; 293.15 K),mass density ([1]; 293.15 K),viscosity ([1]; 298.15 K),mass density ([1]; 298.15 K),viscosity ([1]; 303.15 K),mass density ([1]; 303.15 K),viscosity ([1]; 308.15 K),mass density ([1]; 308.15 K),viscosity ([1]; 313.15 K),mass density ([1]; 313.15 K),viscosity ([1]; 318.15 K),mass density ([1]; 318.15 K),viscosity ([1]; 323.15 K),mass density ([1]; 323.15 K),"viscosity ([2]; 293.15 K, x2 = 0)","mass density ([2]; 293.15 K, x2 = 0)","viscosity ([2]; 298.15 K, x2 = 0)","mass density ([2]; 298.15 K, x2 = 0)","viscosity ([2]; 303.15 K, x2 = 0)","mass density ([2]; 303.15 K, x2 = 0)",SMILES,other results
7.03 ± 0.35 mPa·s,822.2 ± 20 kg/m3,5.92 ± 0.3 mPa·s,818.7 ± 20 kg/m3,5.03 ± 0.25 mPa·s,815.2 ± 20 kg/m3,4.3 ± 0.22 mPa·s,811.6 ± 20 kg/m3,3.71 ± 0.19 mPa·s,808 ± 20 kg/m3,3.21 ± 0.16 mPa·s,804.4 ± 20 kg/m3,2.79 ± 0.14 mPa·s,800.7 ± 20 kg/m3,–,–,–,–,–,–,CCCCCCCO [heptan-1-ol],–
–,–,–,–,–,–,–,–,–,–,–,–,–,–,9.13 ± 0.46 mPa·s,824.9 ± 20 kg/m3,7.62 ± 0.38 mPa·s,821.4 ± 20 kg/m3,6.41 ± 0.32 mPa·s,817.9 ± 20 kg/m3,CCCCCCCCO [octan-1-ol] + O=C1CCCCC1,"viscosity ([2]; 308.15 K, x2 = 0): 5.43 ± 0.27 mPa·s; mass density ([2]; 308.15 K, x2 = 0): 814.4 ± 20 kg/m3; viscosity ([2]; 313.15 K, x2 = 0): 4.63 ± 0.23 mPa·s; mass density ([2]; 313.15 K, x2 = 0): 810.9 ± 20 kg/m3; viscosity ([2]; 318.15 K, x2 = 0): 3.98 ± 0.2 mPa·s; mass density ([2]; 318.15 K, x2 = 0): 807.3 ± 20 kg/m3; viscosity ([2]; 323.15 K, x2 = 0): 3.4 ± 0.17 mPa·s; mass density ([2]; 323.15 K, x2 = 0): 803.7 ± 20 kg/m3"
5.37 ± 0.27 mPa·s,818.7 ± 20 kg/m3,4.58 ± 0.23 mPa·s,815.1 ± 20 kg/m3,3.94 ± 0.2 mPa·s,811.5 ± 20 kg/m3,3.4 ± 0.17 mPa·s,807.9 ± 20 kg/m3,2.95 ± 0.15 mPa·s,804.2 ± 20 kg/m3,2.58 ± 0.13 mPa·s,800.6 ± 20 kg/m3,2.26 ± 0.11 mPa·s,796.8 ± 20 kg/m3,–,–,–,–,–,–,CCCCCCO [hexan-1-ol],–
2.3 ± 0.12 mPa·s,948.8 ± 20 kg/m3,2.09 ± 0.11 mPa·s,943.1 ± 20 kg/m3,1.91 ± 0.1 mPa·s,938.2 ± 20 kg/m3,1.75 ± 0.09 mPa·s,933.5 ± 20 kg/m3,1.6 ± 0.08 mPa·s,928.8 ± 20 kg/m3,1.46 ± 0.07 mPa·s,924.4 ± 20 kg/m3,1.34 ± 0.07 mPa·s,920.7 ± 20 kg/m3,–,–,–,–,–,–,O=C1CCCCC1 [cyclohexanone],–
4.03 ± 0.2 mPa·s,814.5 ± 20 kg/m3,3.49 ± 0.18 mPa·s,810.8 ± 20 kg/m3,3.04 ± 0.15 mPa·s,807.1 ± 20 kg/m3,2.65 ± 0.13 mPa·s,803.3 ± 20 kg/m3,2.32 ± 0.12 mPa·s,799.6 ± 20 kg/m3,2.05 ± 0.1 mPa·s,795.8 ± 20 kg/m3,1.81 ± 0.09 mPa·s,792 ± 20 kg/m3,–,–,–,–,–,–,CCCCCO [pentan-1-ol],–
